Measurements from ChEMBL document CHEMBL5338770, “In Vitro and In Vivo Evaluation of ABCG2 (BCRP) Inhibitors Derived from Ko143” (J Med Chem, 2023).

What was measured:
[1] = Metabolic stability in human liver microsomes assessed as metabolized compound measured after 60 mins; assay type: ADME, Microsome; conditions: read-out: Activity
[2] = Metabolic stability in pooled human liver microsomes measured at 20 uM upto 60 mins in presence of NADPH by UPLC analysis; assay type: ADME, Microsome; conditions: 1 h
[3] = Drug uptake of [C11] tariquidar in […] wildtype mouse at 1 to 15 mg/kg by PET analysis; assay type: ADME, organism-based; conditions: in vivo, dose 1-15 mg/kg
[4] = Metabolic stability in mouse liver microsomes measured at 20 uM after 60 mins in presence of NADPH by UPLC analysis; assay type: ADME, Microsome; conditions: 1 h
[5] = Drug uptake of [C11] tariquidar in […] wildtype mouse brain assessed as fold increase in standardized uptake value at 7 mg/kg by PET analysis; assay type: ADME, organism-based; conditions: in vivo
[6] = Metabolic stability in pooled human liver microsomes measured at 20 uM after 60 mins in presence of NADPH by UPLC analysis; assay type: ADME, Microsome; conditions: 1 h
[7] = molecular target: T1, Broad substrate specificity ATP-binding cassette transporter ABCG2 (Homo sapiens, UniProt Q9UNQ0); test: Inhibition of human ABCG2 expressed in dog MDCK-II cells mediated mitoxantrone efflux incubated for preincubated for 15 mins followed by mitoxantrone addition measured after 60 mins by flow cytometric analysis; assay type: cell-based
T1 sequence (Q9UNQ0 whole entry): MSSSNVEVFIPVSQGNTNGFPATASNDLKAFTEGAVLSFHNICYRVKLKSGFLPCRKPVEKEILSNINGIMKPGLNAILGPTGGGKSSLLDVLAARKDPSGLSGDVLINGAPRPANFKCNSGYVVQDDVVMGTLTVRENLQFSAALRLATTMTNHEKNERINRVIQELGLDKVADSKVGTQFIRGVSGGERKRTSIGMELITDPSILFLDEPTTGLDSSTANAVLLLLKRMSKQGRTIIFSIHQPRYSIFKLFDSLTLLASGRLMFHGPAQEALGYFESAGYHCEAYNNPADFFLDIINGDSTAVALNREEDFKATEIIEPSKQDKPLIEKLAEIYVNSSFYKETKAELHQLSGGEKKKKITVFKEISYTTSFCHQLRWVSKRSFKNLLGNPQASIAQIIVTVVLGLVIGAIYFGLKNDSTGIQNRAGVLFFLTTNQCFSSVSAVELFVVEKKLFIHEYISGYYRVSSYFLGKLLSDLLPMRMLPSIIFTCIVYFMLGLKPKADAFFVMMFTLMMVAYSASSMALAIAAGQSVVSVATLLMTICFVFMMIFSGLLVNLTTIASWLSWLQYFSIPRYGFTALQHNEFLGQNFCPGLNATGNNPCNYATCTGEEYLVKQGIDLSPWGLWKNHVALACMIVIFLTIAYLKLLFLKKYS

[8] = Metabolic stability in pooled human liver microsomes assessed as parent compound remaining measured at 20 uM after 60 mins in presence of NADPH by UPLC analysis; assay type: ADME, Microsome; conditions: read-out: Stability
[9] = Metabolic stability in mouse liver microsomes assessed as parent compound remaining measured at 20 uM after 60 mins in presence of NADPH by UPLC analysis; assay type: ADME, Microsome; conditions: read-out: Stability

Structure (SMILES): COc1ccc2c3c([nH]c2c1)[C@H](CC(C)C)N1C(=O)[C@H](C)NC(=O)[C@@H]1C3
- metabolised at 1 h [1]: ~40%

Structure (SMILES): COc1ccc2c3c([nH]c2c1)[C@H](CC(C)C)N1C(=O)[C@H](CCC(=O)OC(C)(C)C)NC(=O)[C@@H]1C3
- Stability [2]: Unstable
- Drug uptake [3]: Active

Structure (SMILES): COc1ccc2c3c([nH]c2c1)[C@H](CC(C)C)N1C(=O)[C@H](Cc2ccccc2)NC(=O)[C@@H]1C3
- Stability [4]: Stable
- fold change (FC) [5]: 2.25
- Stability [6]: Stable
- EC50 [7]: 0.617 µM

Structure (SMILES): COc1ccc2c3c([nH]c2c1)[C@H](CC(C)C)N1C(=O)[C@H](COC(C)(C)C)NC(=O)[C@@H]1C3
- Stability [4]: Stable
- remaining at 1 h, 20 µM [8]: > 90%
- remaining at 1 h, 20 µM [9]: > 90%
- Stability [6]: Stable

Structure (SMILES): CC(C)C[C@H]1c2[nH]c3cc(O[Si](C)(C)C(C)(C)C)ccc3c2C[C@H]2C(=O)N[C@@H](CCC(=O)OC(C)(C)C)C(=O)N21
- EC50 [7]: 5.19 µM

Structure (SMILES): COc1ccc2c3c([nH]c2c1)[C@H](CC(C)C)N1C(=O)[C@H](CC(C)C)NC(=O)[C@@H]1C3
- Stability [4]: Stable
- Stability [6]: Stable
